Where a name gives a salt, the structure may show the parent alone. Read-outs that look alike come from different tables or passages of the source.
Key:
Assay type in all cases: cell-based
human 5-HT2C-INI = target: T1, human 5-HT2C-INI (Homo sapiens, UniProt P28335); assay: FLIPR calcium flux assay, 5-HT2C; settings: for EC50: read-out: EC50, nM 5-HT2C, FLIPR, HEK-293 cells stably expressing human receptor
T1 sequence (P28335 33-458): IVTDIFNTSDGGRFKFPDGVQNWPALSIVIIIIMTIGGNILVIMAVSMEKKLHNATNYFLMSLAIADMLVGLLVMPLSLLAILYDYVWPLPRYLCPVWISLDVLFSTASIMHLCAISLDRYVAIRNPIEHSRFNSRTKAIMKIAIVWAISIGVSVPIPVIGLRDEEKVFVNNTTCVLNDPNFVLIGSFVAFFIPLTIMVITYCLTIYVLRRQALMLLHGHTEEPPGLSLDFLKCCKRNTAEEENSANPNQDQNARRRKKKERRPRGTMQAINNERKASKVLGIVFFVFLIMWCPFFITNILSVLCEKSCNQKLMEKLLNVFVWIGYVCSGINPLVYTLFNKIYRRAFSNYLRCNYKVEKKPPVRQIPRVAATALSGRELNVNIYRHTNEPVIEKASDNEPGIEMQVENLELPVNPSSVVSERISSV

human 5-HT2B = human 5-HT2B (Homo sapiens, UniProt P41595); assay: FLIPR calcium flux assay, 5-HT2B; settings: for Emax 5-HT2B: HEK-293 cells stably expressing human receptor
human 5-HT2A = human 5-HT2A (Homo sapiens, UniProt P28223); assay: FLIPR calcium flux assay, 5-HT2A
[1] = EC50, nM 5-HT2B, FLIPR, HEK-293 cells, NA = no activity (Emax < 15%) at 10 μM

Chain of human 5-HT2A (P28223 whole entry): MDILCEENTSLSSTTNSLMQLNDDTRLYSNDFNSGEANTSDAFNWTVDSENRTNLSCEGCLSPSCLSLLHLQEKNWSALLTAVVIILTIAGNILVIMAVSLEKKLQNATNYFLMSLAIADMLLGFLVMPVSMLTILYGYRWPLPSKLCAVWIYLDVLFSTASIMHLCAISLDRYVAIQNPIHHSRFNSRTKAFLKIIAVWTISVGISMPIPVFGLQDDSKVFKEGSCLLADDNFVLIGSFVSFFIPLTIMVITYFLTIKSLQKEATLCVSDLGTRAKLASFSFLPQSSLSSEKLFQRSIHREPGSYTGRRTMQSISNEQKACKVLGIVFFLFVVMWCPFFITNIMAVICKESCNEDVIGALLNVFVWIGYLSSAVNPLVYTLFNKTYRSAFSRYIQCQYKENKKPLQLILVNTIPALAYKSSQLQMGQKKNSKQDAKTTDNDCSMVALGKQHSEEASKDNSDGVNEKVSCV
Chain of human 5-HT2B (P41595 whole entry): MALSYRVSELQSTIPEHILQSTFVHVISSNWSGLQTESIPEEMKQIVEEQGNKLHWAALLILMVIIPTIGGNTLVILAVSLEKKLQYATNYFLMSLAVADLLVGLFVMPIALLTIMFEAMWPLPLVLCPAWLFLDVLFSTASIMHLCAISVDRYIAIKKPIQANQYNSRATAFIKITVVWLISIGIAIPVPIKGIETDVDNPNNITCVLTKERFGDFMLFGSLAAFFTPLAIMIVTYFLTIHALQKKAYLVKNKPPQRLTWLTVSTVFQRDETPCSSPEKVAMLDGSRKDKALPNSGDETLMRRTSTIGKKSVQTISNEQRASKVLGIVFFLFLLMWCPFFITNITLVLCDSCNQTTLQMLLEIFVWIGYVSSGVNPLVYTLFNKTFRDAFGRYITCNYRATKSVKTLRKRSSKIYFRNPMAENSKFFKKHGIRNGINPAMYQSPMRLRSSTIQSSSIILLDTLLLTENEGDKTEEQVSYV

Structure (SMILES) | EC50 (human 5-HT2C-INI) [nM] | EC50, nM 5-HT2A (human 5-HT2A) | also measured
COc1ccc(Cl)c(Cl)c1C1CC1CN.Cl (single isomer, unassigned; (+)) [(+)-20f, (+)-[2-(2,3-Dichloro-6-methoxyphenyl)cyclopropyl]methanamine Hydrochloride] |  |  | fold weaker at 5-HT2C than its enantiomer (human 5-HT2C-INI; compared to the (–)-enantiomer): 20 fold; Emax 5-HT2B (human 5-HT2B; FLIPR): 46%; Emax 5-HT2A (human 5-HT2A; FLIPR, HEK-293 cells stably expressing human receptor): 76%
COc1ccc(F)c(Cl)c1C1CC1CN.Cl (single isomer, unassigned; (+)) [(+)-20g, (+)-[2-(2-Chloro-3-fluoro-6-methoxyphenyl)cyclopropyl]methanamine Hydrochloride] |  |  | Emax 5-HT2B (human 5-HT2B; FLIPR): 60%
NCC1CC1c1cc(F)c(F)cc1OCCF (single isomer, unassigned; (+)) [(+)-21a, (+)-[2-[4,5-Difluoro-2-(2-fluoroethoxy)phenyl]cyclopropyl]methanamine Hydrochloride] | 7.3 |  | 
NCC1CC1c1c(OCCF)ccc(F)c1F (single isomer, unassigned; (+)) [(+)-21b, (+)-[2-[2,3-Difluoro-6-(2-fluoroethoxy)phenyl]cyclopropyl]methanamine Hydrochloride] | 25 |  | 
NCC1CC1c1cc(Cl)c(F)cc1OCCF (single isomer, unassigned; (+)) [(+)-21c, (+)-[2-[5-Chloro-4-fluoro-2-(2-fluoroethoxy)phenyl]cyclopropyl]methanamine Hydrochloride] | 24 |  | EC50 (human 5-HT2B; read-out: EC50, nM 5-HT2B): 506 nM
Cl.NCC1CC1c1c(OCCF)ccc(Cl)c1F (single isomer, unassigned; (+)) [(+)-21d, (+)-[2-[3-Chloro-2-fluoro-6-(2-fluoroethoxy)phenyl]cyclopropyl]methanamine Hydrochloride] | 71 |  | EC50, nM 5-HT2B (human 5-HT2B): NA (no activity (Emax < 15%) at 10 μM)
NCC1CC1c1cc(Cl)c(Cl)cc1OCCF (single isomer, unassigned; (+)) [(+)-21e, (+)-[2-[4,5-Dichloro-2-(2-fluoroethoxy)phenyl]cyclopropyl]methanamine Hydrochloride] | 18 |  | EC50 (human 5-HT2B; [1]): > 10000 nM
Cl.NCC1CC1c1c(OCCF)ccc(Cl)c1Cl (single isomer, unassigned; (+)) [(+)-21f, (+)-[2-[2,3-Dichloro-6-(2-fluoroethoxy)phenyl]cyclopropyl]methanamine Hydrochloride] |  |  | Emax 5-HT2B (human 5-HT2B; FLIPR): 99%
NCC1CC1c1c(OCCF)ccc(F)c1Cl (single isomer, unassigned; (+)) [(+)-21g, (+)-[2-[2-Chloro-3-fluoro-6-(2-fluoroethoxy)phenyl]cyclopropyl]methanamine Hydrochloride] | 49 |  | 
C=CCOc1ccc(F)c(F)c1C1CC1CN.Cl (single isomer, unassigned; (+)) [(+)-22b, (+)-[2-[6-(Allyloxy)-2,3-difluorophenyl]cyclopropyl]methanamine hydrochloride] | 36 | NA (no activity (Emax < 15%) at 10 μM) | EC50 (human 5-HT2B; read-out: EC50, nM 5-HT2B): 3340 nM
C=CCOc1cc(F)c(Cl)cc1C1CC1CN.Cl (single isomer, unassigned; (+)) [(+)-22c, (+)-[2-[2-(Allyloxy)-5-chloro-4-fluorophenyl]cyclopropyl]methanamine Hydrochloride] | 42 |  | Emax 5-HT2B (human 5-HT2B; FLIPR): 44%
C=CCOc1ccc(Cl)c(F)c1C1CC1CN.Cl (single isomer, unassigned; (+)) [(+)-22d, (+)-[2-[6-(Allyloxy)-3-chloro-2-fluorophenyl]cyclopropyl]methanamine Hydrochloride] | 116 | NA (no activity (Emax < 15%) at 10 μM) | 
C=CCOc1cc(Cl)c(Cl)cc1C1CC1CN (single isomer, unassigned; (+)) [(+)-22e, (+)-[2-[2-(Allyloxy)-4,5-dichlorophenyl]cyclopropyl]methanamine Hydrochloride] | 61 |  | 
C=CCOc1ccc(Cl)c(Cl)c1C1CC1CN.Cl (single isomer, unassigned; (+)) [(+)-22f, (+)-[2-[6-(Allyloxy)-2,3-dichlorophenyl]cyclopropyl]methanamine Hydrochloride] |  | NA (no activity (Emax < 15%) at 10 μM) | EC50, nM 5-HT2B (human 5-HT2B): NA (no activity (Emax < 15%) at 10 μM)
C=CCOc1ccc(F)c(Cl)c1C1CC1CN.Cl (single isomer, unassigned; (+)) [(+)-22g, (+)-[2-[6-(Allyloxy)-2-chloro-3-fluorophenyl]cyclopropyl]methanamine Hydrochloride] |  | NA (no activity (Emax < 15%) at 10 μM) | 
COc1ccc(Cl)c(Cl)c1C1CC1CN.Cl (single isomer, unassigned; (-)) [(–)-20f, (–)-[2-(2,3-Dichloro-6-methoxyphenyl)cyclopropyl]methanamine Hydrochloride] |  |  | selectivity over 5-HT2B (human 5-HT2B; 5-HT2C vs 5-HT2B): 50 fold
Cl.NCC1CC1c1cc(F)c(F)cc1OCCF (single isomer, unassigned; (-)) [(–)-21a, (–)-[2-[4,5-Difluoro-2-(2-fluoroethoxy)phenyl]cyclopropyl]methanamine Hydrochloride] |  | NA (no activity (Emax < 15%) at 10 μM) | EC50, nM 5-HT2B (human 5-HT2B): NA (no activity (Emax < 15%) at 10 μM)
Cl.NCC1CC1c1c(OCCF)ccc(F)c1F (single isomer, unassigned; (-)) [(–)-21b, (–)-[2-[2,3-Difluoro-6-(2-fluoroethoxy)phenyl]cyclopropyl]methanamine Hydrochloride] |  | NA (no activity (Emax < 15%) at 10 μM) | 
Cl.NCC1CC1c1cc(Cl)c(F)cc1OCCF (single isomer, unassigned; (-)) [(–)-21c, (–)-[2-[5-Chloro-4-fluoro-2-(2-fluoroethoxy)phenyl]cyclopropyl]methanamine Hydrochloride] |  | NA (no activity (Emax < 15%) at 10 μM) | 
Cl.NCC1CC1c1c(OCCF)ccc(Cl)c1F (single isomer, unassigned; (-)) [(–)-21d, (–)-[2-[3-Chloro-2-fluoro-6-(2-fluoroethoxy)phenyl]cyclopropyl]methanamine Hydrochloride] |  | NA (no activity (Emax < 15%) at 10 μM) | EC50, nM 5-HT2B (human 5-HT2B): NA (no activity (Emax < 15%) at 10 μM)
Cl.NCC1CC1c1cc(Cl)c(Cl)cc1OCCF (single isomer, unassigned; (-)) [(–)-21e, (–)-[2-[4,5-Dichloro-2-(2-fluoroethoxy)phenyl]cyclopropyl]methanamine Hydrochloride] |  | NA (no activity (Emax < 15%) at 10 μM) | EC50, nM 5-HT2B (human 5-HT2B): NA (no activity (Emax < 15%) at 10 μM)
Cl.NCC1CC1c1c(OCCF)ccc(Cl)c1Cl (single isomer, unassigned; (-)) [(–)-21f, (–)-[2-[2,3-Dichloro-6-(2-fluoroethoxy)phenyl]cyclopropyl]methanamine Hydrochloride] |  | NA (no activity (Emax < 15%) at 10 μM) | EC50 (human 5-HT2B; [1]): > 10000 nM; Emax 5-HT2B (human 5-HT2B; FLIPR): 62%
Cl.NCC1CC1c1c(OCCF)ccc(F)c1Cl (single isomer, unassigned; (-)) [(–)-21g, (–)-[2-[2-Chloro-3-fluoro-6-(2-fluoroethoxy)phenyl]cyclopropyl]methanamine Hydrochloride] |  | NA (no activity (Emax < 15%) at 10 μM) | Emax 5-HT2B (human 5-HT2B; FLIPR): 29%
C=CCOc1ccc(F)c(F)c1C1CC1CN.Cl (single isomer, unassigned; (-)) [(–)-22b, (–)-[2-[6-(Allyloxy)-2,3-difluorophenyl]cyclopropyl]methanamine hydrochloride] |  | NA (no activity (Emax < 15%) at 10 μM) | 
C=CCOc1cc(F)c(Cl)cc1C1CC1CN.Cl (single isomer, unassigned; (-)) [(–)-22c, (–)-[2-[2-(Allyloxy)-5-chloro-4-fluorophenyl]cyclopropyl]methanamine Hydrochloride] |  | NA (no activity (Emax < 15%) at 10 μM) | 
C=CCOc1ccc(Cl)c(F)c1C1CC1CN.Cl (single isomer, unassigned; (-)) [(–)-22d, (–)-[2-[6-(Allyloxy)-3-chloro-2-fluorophenyl]cyclopropyl]methanamine Hydrochloride] |  |  | EC50, nM 5-HT2B (human 5-HT2B): NA (no activity (Emax < 15%) at 10 μM)
C=CCOc1cc(Cl)c(Cl)cc1C1CC1CN.Cl (single isomer, unassigned; (-)) [(–)-22e, (–)-[2-[2-(Allyloxy)-4,5-dichlorophenyl]cyclopropyl]methanamine Hydrochloride] |  | NA (no activity (Emax < 15%) at 10 μM) | EC50, nM 5-HT2B (human 5-HT2B): NA (no activity (Emax < 15%) at 10 μM)
C=CCOc1ccc(F)c(Cl)c1C1CC1CN.Cl (single isomer, unassigned; (-)) [(–)-22g, (–)-[2-[6-(Allyloxy)-2-chloro-3-fluorophenyl]cyclopropyl]methanamine Hydrochloride] |  | NA (no activity (Emax < 15%) at 10 μM) | 
